In patent US11510428B2, “Rebaudioside B and derivatives” (SWEET GREEN FIELDS INTERNATIONAL CO., LIMITED, priority 2011, dated 2022):

Tests used:
[1] = General taste and sweetness statements on steviol glycosides, RA, RB and RB salt (background and description); assay type: in vivo
[2] = cited from earlier work
[3] = Taste comparison between RB and RA by experts (Example 7); assay type: in vivo, human; conditions: 400 ppm aqueous solution
Description: Taste comparison between RB (prepared in Example 1, first part) and RA Purity of RA was 99.0% by HPLC and RB was 99.1% by HPLC.
RB sample: 400 ppm aqueous solution
RA sample: 400 ppm aqueous solution

[4] = Sensory evaluation after adding Reb D to samples of Example 9 (Example 10); assay type: in vivo, human; conditions: total concentration of rebaudiosides 400 ppm

| Molecule | Concentration that provides maximum sweetness ([1]; aqueous solution) | Concentration above which there is no increased perceived sweetness ([1]; in food products) | Bitterness and aftertaste ([2]; 100% purity RA, e.g. 500 ppm aqueous solution) | Taste quality ([2]; increased sweetness and decreased bitterness, Phytochemistry 68, 2007) | Bitterness ([3]; 7/10 experts) | On-set profile ([1]; compared with other steviol glycosides) | Taste profile [3] | Sweetness ([3]; 7/10 experts) | Sensory taste profile on addition of Reb D [4] |
| --- | --- | --- | --- | --- | --- | --- | --- | --- | --- |
| C=C1C[C@@]23CC[C@H]4[C@@](C)(CCC[C@@]4(C)C(=O)O[C@@H]4O[C@H](CO)[C@@H](O)[C@H](O)[C@H]4O)[C@@H]2CC[C@]1(O[C@@H]1O[C@H](CO)[C@@H](O)[C@H](O[C@@H]2O[C@H](CO)[C@@H](O)[C@H](O)[C@H]2O)[C@H]1O[C@@H]1O[C@H](CO)[C@@H](O)[C@H](O)[C@H]1O)C3 [RA, Rebaudioside A] | About 250 ppm | about 500 ppm | appear strongly at higher concentrations | better than stevioside | strong bitterness profile | – | – | – | – |
| Rebaudioside B [RB] | – | – | – | – | less bitterness than RA | short on-set profile | tasted better than RA | lesser sweetness than RA | – |
| C=C1C[C@@]23CC[C@H]4[C@@](C)(CCC[C@@]4(C)C(=O)O[C@@H]4O[C@H](CO)[C@@H](O)[C@H](O)[C@H]4O[C@@H]4O[C@H](CO)[C@@H](O)[C@H](O)[C@H]4O)[C@@H]2CC[C@]1(O[C@@H]1O[C@H](CO)[C@@H](O)[C@H](O[C@@H]2O[C@H](CO)[C@@H](O)[C@H](O)[C@H]2O)[C@H]1O[C@@H]1O[C@H](CO)[C@@H](O)[C@H](O)[C@H]1O)C3 [Reb D, Rebaudioside D] | – | – | – | – | – | – | – | – | can improve sensory taste profile |
